Measured values taken from US20260224524A1, “A PHARMACEUTICAL COMPOSITION TARGETING MUTANT P53 AND HER2” (DR DOZO LABORATORIES, priority 2023, published 2026).
Converted amounts (≈) assume the structure as drawn.

Experiments:
[1] = system: human tumour xenograft MDA-MB-231; assay: Human tumour xenograft MDA-MB-231 model, tumour volume and relative tumour volume; format: in vivo, mice; parameters: Tumor Volume: unit not given here; settings: Group B; for RTV (Relative Tumour Volume): 2.5 mg/kg i.v. day 1, 5, 9
Description: (§1) The therapeutic effect of SACC is evaluated against triple-negative breast cancer cell line MDA-MB-231 by analysing tumour volume and relative tumour volume. The study involved the use of six mice. These mice were administrated treatment according to the following Groups: […]

[2] = Human tumour xenograft MDA-MB-231 model, animal body weight; format: in vivo, mice; settings: for Animal Body Weight: Group B, 2.5 mg/kg i.v. day 1, 5, 9
Description: as §1

[3] = system: Human Lung Cancer Cell Line A-549; assay: Growth inhibition (% control growth, LC50, TGI, GI50) A-549; format: cell-based
Description: The therapeutic effect of SA1 (peak 5) and SA2 (peak 4) is evaluated against human lung cancer cell line A-549 by calculating the percentage growth inhibition, drug concentration of test compound needed to inhibit cell growth by 50% (GI50) values.
The therapeutic effect of SACC is evaluated against human lung cancer cell line A-549 by calculating the percentage growth inhibition, drug concentration of test compound needed to inhibit cell growth by 50% (GI50) values.

[4] = Human tumour xenograft MDA-MB-231 model, survival; format: in vivo; settings: for % Survival: Group B, 2.5 mg/kg i.v. day 1, 5, 9
Description: as §1

COc1cccc2c1C(=O)c1c(O)c3c(c(O)c1C2=O)C[C@@](O)(C(=O)CO)C[C@@H]3O[C@H]1C[C@H](N)[C@H](O)[C@H](C)O1 [ADR, Adriamycin]
RTV (Relative Tumour Volume) ([1]; day 9): 0.95
RTV (Relative Tumour Volume) ([1]; day 15): 1.63
RTV (Relative Tumour Volume) ([1]; day 18): 1.93
RTV (Relative Tumour Volume) ([1]; day 21): 2.29
RTV (Relative Tumour Volume) ([1]; day 25): 4.22
RTV (Relative Tumour Volume) ([1]; day 30): 7.30
tumour volume (in words) ([1]; ADR 2.5 mg/Kg): decreased tumour volume
Tumor Volume ([1]; ADR 2.5 mg/Kg, day 1, Mouse 1): 0.06
Tumor Volume ([1]; ADR 2.5 mg/Kg, day 1, Mouse 2): 0.05
Tumor Volume ([1]; ADR 2.5 mg/Kg, day 1, Mouse 3): 0.06
Tumor Volume ([1]; ADR 2.5 mg/Kg, day 1, Mouse 4): 0.05
Tumor Volume ([1]; ADR 2.5 mg/Kg, day 1, Mouse 5): 0.06
Tumor Volume ([1]; ADR 2.5 mg/Kg, day 1, Mouse 6): 0.06
Tumor Volume ([1]; ADR 2.5 mg/Kg, day 5, Mouse 1): 0.05
Tumor Volume ([1]; ADR 2.5 mg/Kg, day 5, Mouse 2): 0.07
Tumor Volume ([1]; ADR 2.5 mg/Kg, day 5, Mouse 3): 0.06
Tumor Volume ([1]; ADR 2.5 mg/Kg, day 5, Mouse 4): 0.06
Tumor Volume ([1]; ADR 2.5 mg/Kg, day 5, Mouse 5): 0.05
Tumor Volume ([1]; ADR 2.5 mg/Kg, day 5, Mouse 6): 0.06
Tumor Volume ([1]; ADR 2.5 mg/Kg, day 9, Mouse 1): 0.05
Tumor Volume ([1]; ADR 2.5 mg/Kg, day 9, Mouse 2): 0.08
Tumor Volume ([1]; ADR 2.5 mg/Kg, day 9, Mouse 3): 0.04
Tumor Volume ([1]; ADR 2.5 mg/Kg, day 9, Mouse 4): 0.04
Tumor Volume ([1]; ADR 2.5 mg/Kg, day 9, Mouse 5): 0.06
Tumor Volume ([1]; ADR 2.5 mg/Kg, day 9, Mouse 6): 0.05
Tumor Volume ([1]; ADR 2.5 mg/Kg, day 12, Mouse 1): 0.06
Tumor Volume ([1]; ADR 2.5 mg/Kg, day 12, Mouse 2): 0.10
Tumor Volume ([1]; ADR 2.5 mg/Kg, day 12, Mouse 3): 0.05
Tumor Volume ([1]; ADR 2.5 mg/Kg, day 12, Mouse 4): 0.05
Tumor Volume ([1]; ADR 2.5 mg/Kg, day 12, Mouse 5): 0.06
Tumor Volume ([1]; ADR 2.5 mg/Kg, day 12, Mouse 6): 0.07
Tumor Volume ([1]; ADR 2.5 mg/Kg, day 15, Mouse 1): 0.07
Tumor Volume ([1]; ADR 2.5 mg/Kg, day 15, Mouse 2): 0.16
Tumor Volume ([1]; ADR 2.5 mg/Kg, day 15, Mouse 3): 0.07
Tumor Volume ([1]; ADR 2.5 mg/Kg, day 15, Mouse 4): 0.06
Tumor Volume ([1]; ADR 2.5 mg/Kg, day 15, Mouse 5): 0.08
Tumor Volume ([1]; ADR 2.5 mg/Kg, day 15, Mouse 6): 0.11
Tumor Volume ([1]; ADR 2.5 mg/Kg, day 18, Mouse 1): 0.07
Tumor Volume ([1]; ADR 2.5 mg/Kg, day 18, Mouse 2): 0.21
Tumor Volume ([1]; ADR 2.5 mg/Kg, day 18, Mouse 3): 0.07
Tumor Volume ([1]; ADR 2.5 mg/Kg, day 18, Mouse 4): 0.07
Tumor Volume ([1]; ADR 2.5 mg/Kg, day 18, Mouse 5): 0.07
Tumor Volume ([1]; ADR 2.5 mg/Kg, day 18, Mouse 6): 0.16
Tumor Volume ([1]; ADR 2.5 mg/Kg, day 21, Mouse 1): 0.05
Tumor Volume ([1]; ADR 2.5 mg/Kg, day 21, Mouse 2): 0.23
Tumor Volume ([1]; ADR 2.5 mg/Kg, day 21, Mouse 3): 0.08
Tumor Volume ([1]; ADR 2.5 mg/Kg, day 21, Mouse 4): 0.11
Tumor Volume ([1]; ADR 2.5 mg/Kg, day 21, Mouse 5): 0.13
Tumor Volume ([1]; ADR 2.5 mg/Kg, day 21, Mouse 6): 0.17
Tumor Volume ([1]; ADR 2.5 mg/Kg, day 25, Mouse 1): 0.08
Tumor Volume ([1]; ADR 2.5 mg/Kg, day 25, Mouse 2): 0.31
Tumor Volume ([1]; ADR 2.5 mg/Kg, day 25, Mouse 3): 0.33
Tumor Volume ([1]; ADR 2.5 mg/Kg, day 25, Mouse 4): 0.24
Tumor Volume ([1]; ADR 2.5 mg/Kg, day 25, Mouse 5): 0.17
Tumor Volume ([1]; ADR 2.5 mg/Kg, day 25, Mouse 6): 0.29
Tumor Volume ([1]; ADR 2.5 mg/Kg, day 30, Mouse 2): 0.53
Tumor Volume ([1]; ADR 2.5 mg/Kg, day 30, Mouse 3): 0.55
Tumor Volume ([1]; ADR 2.5 mg/Kg, day 30, Mouse 4): 0.29
Tumor Volume ([1]; ADR 2.5 mg/Kg, day 30, Mouse 5): 0.28
Tumor Volume ([1]; ADR 2.5 mg/Kg, day 30, Mouse 6): 0.40
Animal Body Weight ([2]; day 1): 20.9 Grams
Animal Body Weight ([2]; day 5): 19.9 Grams
Animal Body Weight ([2]; day 9): 20.3 Grams
Animal Body Weight ([2]; day 12): 20.1 Grams
Animal Body Weight ([2]; day 15): 19.5 Grams
Animal Body Weight ([2]; day 18): 20.4 Grams
Animal Body Weight ([2]; day 21): 20.0 Grams
Animal Body Weight ([2]; day 25): 20.2 Grams
Animal Body Weight ([2]; day 30): 21.6 Grams
change in body weight (in words) ([2]; average body weight over 30 days): minimal change in body weight
% Control Growth ([3]; A-549, 10 μg/ml, Average Values): −26.5%
% Control Growth ([3]; A-549, 10 μg/ml, Experiment 1): −23.5%
% Control Growth ([3]; A-549, 10 μg/ml, Experiment 2): −29.5%
% Control Growth ([3]; A-549, 10 μg/ml, Experiment 3): −26.5%
% Control Growth ([3]; A-549, 20 μg/ml, Average Values): −30.8%
% Control Growth ([3]; A-549, 20 μg/ml, Experiment 1): −28.2%
% Control Growth ([3]; A-549, 20 μg/ml, Experiment 2): −33.8%
% Control Growth ([3]; A-549, 20 μg/ml, Experiment 3): −30.4%
% Control Growth ([3]; A-549, 40 μg/ml, Average Values): −46.0%
% Control Growth ([3]; A-549, 40 μg/ml, Experiment 1): −45.0%
% Control Growth ([3]; A-549, 40 μg/ml, Experiment 2): −48.7%
% Control Growth ([3]; A-549, 40 μg/ml, Experiment 3): −44.2%
% Control Growth ([3]; A-549, 80 μg/ml, Average Values): −50.0%
% Control Growth ([3]; A-549, 80 μg/ml, Experiment 1): −49.4%
% Control Growth ([3]; A-549, 80 μg/ml, Experiment 2): −51.0%
% Control Growth ([3]; A-549, 80 μg/ml, Experiment 3): −49.4%
% Control Growth ([3]; A-549, 10^−4M, Average Values): −43.0%
% Control Growth ([3]; A-549, 10^−4M, Experiment 1): 36.5%
% Control Growth ([3]; A-549, 10^−4M, Experiment 2): 44.4%
% Control Growth ([3]; A-549, 10^−4M, Experiment 3): −48.1%
% Control Growth ([3]; A-549, 10^−5M, Average Values): −34.9%
% Control Growth ([3]; A-549, 10^−5M, Experiment 1): −30.6%
% Control Growth ([3]; A-549, 10^−5M, Experiment 2): −33.8%
% Control Growth ([3]; A-549, 10^−5M, Experiment 3): −40.3%
% Control Growth ([3]; A-549, 10^−6M, Average Values): −4.0%
% Control Growth ([3]; A-549, 10^−6M, Experiment 1): 10.2%
% Control Growth ([3]; A-549, 10^−6M, Experiment 2): −11.3%
% Control Growth ([3]; A-549, 10^−6M, Experiment 3): −11.0%
% Control Growth ([3]; A-549, 10^−7M, Average Values): 12.4%
% Control Growth ([3]; A-549, 10^−7M, Experiment 1): 53.2%
% Control Growth ([3]; A-549, 10^−7M, Experiment 2): 15.9%
% Control Growth ([3]; A-549, 10^−7M, Experiment 3): −32.0%
TGI ([3]; A-549, Molar drug concentrations calculated from graph): 4.143 µg/mL (≈ 7.62 µM)
TGI ([3]; A-549, calculated from graph): <10 µg/mL
GI50 ([3]; Homo sapiens, A549, A-549, calculated from graph): < 10 µg/mL
CC50 ([3]; Homo sapiens, A549, read-out: LC50, A-549, calculated from graph): 72 µg/mL (≈ 132 µM)
GI50 ([3]; Homo sapiens, A549, A-549, Molar drug concentrations calculated from graph): 1.2 µg/mL (≈ 2.21 µM)
% Survival ([4]; day 1): 100%
% Survival ([4]; day 5): 100%
% Survival ([4]; day 9): 100%
% Survival ([4]; day 12): 100%
% Survival ([4]; day 15): 100%
% Survival ([4]; day 18): 100%
% Survival ([4]; day 21): 100%
% Survival ([4]; day 25): 100%
% Survival ([4]; day 30): 83%
survival rate ([4]; till 25 days): 100%
